Key:
[1] = tested on: murine model for NEC (mNEC); assay: Murine model for NEC (mNEC), oral CpG-ODN during induction (Example 1); type: in vivo, mouse; conditions: for gross morphology: mNEC mice treated orally vs untreated mNEC mice, FIG. 5; for expression of TNFα in the intestines (quantitative RT-PCR) / disruption of the small intestine mucosa (H&E histology): mNEC mice; for expression of TNFα in the intestines (quantitative RT-PCR): oral 1 mg/kg twice per day in formula, day 4 after mNEC induction, FIG. 1; for disruption of the small intestine mucosa (H&E histology): FIG. 2A-F; for body weight: treated vs untreated mNEC mice
Procedure: (§1) A murine model for NEC (“mNEC”) was produced in newborn mice by 4 days of hypoxia and formula gavage (52), which leads to the induction of iNOS, reduced enterocyte proliferation, and disruption of the ileal mucosa (“mNEC” mice) as compared to control mice that were allowed to breast feed (“BF” mice”). Specifically, mNEC was induced in 10-d-old mice (12) using formula gavage [Similac Advance infant formula (Abbott Nutrition):Esbilac canine milk replacer, 2:1] 50 μL/g body weight, five times per day for 4 d, and hypoxia (5% O2, 95% N2) administered for 10 min twice daily for 4 d using a hypoxia chamber (Billups-Rothenberg Inc.). CpG-1 was […]-3′ (SEQ ID NO:6), containing phosphorothioate linkages, known in the art as CpG ODN 1826 (Coley Pharmaceutical Group, Ottawa, Ontario, Canada (Pfizer)). CpG-2 was 5′ […] 3′ (SEQ ID NO:9). CpG-1 or CpG-2 was administered at a dose of 1 mg/kg at a frequency of twice per day in the infant formula described above. Oral administration to breast-fed and NEC animals was achieved by gavage with a silastic foam tipped angiocatheter.
Quantitative RT-PCR was used to assess the effects of orally administered CpG-1 or CpG-2 on expression of the inflammatory cytokine tumor necrosis factor alpha (TNFα) in mNEC versus BF mice. Measurements were made on day 4 after mNEC induction. […] This effect was reflected by histologic evaluation, as depicted in FIG. 2A-F, where the disruption of the small intestine mucosa observed in untreated mNEC mice (FIG. 2B) is ameliorated in mNEC mice orally treated with CpG-1 or CpG-2 (FIGS. 2C and 2D, respectively) to resemble the mucosa of BF control (FIG. 2A).

NFκB = NFκB activation in intestinal mucosa of NFκB-GFP transgenic newborn mice with mNEC, confocal microscopy; type: in vivo, mouse; conditions: mNEC mice vs saline-treated mNEC, FIG. 4A-D
Text: FIG. 4A-D. Confocal microscopy showing extent of NFκB activation in intestinal mucosa of newborn transgenic mice that express NFκB-GFP. Nuclei are indicated by areas of blue fluorescence. NFκB is detected by a red fluorescent anti-GFP antibody, and is more punctate. Newborn mice were either (A) BF controls treated with saline; (B) mNEC mice treated with saline; or (C) mNEC mice treated with CpG-2. (D) is graphical depiction of results, showing the relative red (GFP) pixel intensity for each animal.
A murine model for NEC (“mNEC”) was produced in newborn mice by 4 days of hypoxia and formula gavage (52), which leads to the induction of iNOS, reduced enterocyte proliferation, and disruption of the ileal mucosa (“mNEC” mice) as compared to control mice that were allowed to breast feed (“BF” mice”). Specifically, mNEC was induced in 10-d-old mice (12) using formula gavage [Similac Advance infant formula (Abbott Nutrition):Esbilac canine milk replacer, 2:1] 50 μL/g body weight, five times per day for 4 d, and hypoxia (5% O2, 95% N2) administered for 10 min twice daily for 4 d using a hypoxia chamber (Billups-Rothenberg Inc.). CpG-1 was […]-3′ (SEQ ID NO:6), containing phosphorothioate linkages, known in the art as CpG ODN 1826 (Coley Pharmaceutical Group, Ottawa, Ontario, Canada (Pfizer)). CpG-2 was 5′ […] 3′ (SEQ ID NO:9). […]

[2] = tested on: TLR4-mediated inflammation in human ex vivo intestinal tissue; assay: LPS-induced (TLR4-mediated) inflammation in human ex vivo control and NEC intestinal tissue, qRT-PCR; type: cell-based; conditions: CpG 1 uM, LPS 50 ug/ml 3 hours
Procedure: (§2) The effect of CpG-ODN 5′-[…]-3′ (SEQ ID NO:6; ODN 1826) on inhibiting NEC in a murine NEC model in vivo, and in ex vivo human samples from infants undergoing intestinal resection for active NEC or at the time of stoma closure was examined. To determine the level of NEC inhibition, the extent of LPS signaling was determined by the degree of expression of pro-inflammatory cytokines iNOS and TNFα by Quantitative real-time PCR (qRT-PCR).
All human tissue was obtained and processed as discarded tissue via waiver of consent with approval from the University of Pittsburgh Institutional Review Board and in accordance with the University of Pittsburgh anatomical tissue procurement guidelines. Human tissue was obtained from infants undergoing intestinal resection for active NEC or at the time of stoma closure (healed NEC at the time of stoma closure). After initial review by the duty pathologist to ensure that adequate diagnostic information was obtained from the gross tissue specimen, the intestinal resection was divided into multiple pieces, and treated in triplicate with media alone, LPS 50 ug/ml, CpG (1 uM) alone or LPS+CpG as described by Neal et al. (55). After 3 hours of treatment, tissue was processed for qRT-PCR, and assessed for the expression of IL1β, TLR4, iNOS or IL-6.
(§3) The extent of LPS signaling was determined by the degree of pro-inflammatory cytokines, iNOS, and TNFα by Quantitative real-time PCR (qRT-PCR). qRT-PCR was performed using the Bio-Rad CFX96 Real-Time System (Biorad, Hercules, Calif.) using the primers listed in the table below.

[3] = tested on: experimental NEC in neonatal mice; assay: Experimental NEC in neonatal mice (formula feeding and hypoxia), oral CpG (Example 2); type: in vivo, mouse
Procedure: as §2
Committee of the University of Pittsburgh. Swiss Webster mice were obtained from Charles River Laboratories. NEC was induced in 7-10 day old mice as described by Leaphart et al. (21) and Afrazi et al. (54) using formula gavage (a 2:1 ratio of Similac Advance infant formula (Ross Pediatrics):Esbilac canine milk replacer) administered five times/day, along with hypoxia (5% O2, 95% N2) for 10 min in a hypoxic chamber (Billups-Rothenberg, Inc., Del Mar, Calif.) twice daily, for 4 days. This protocol results in the development of patchy necrosis involving the small intestine, which is similar to human NEC, with an increase in circulating cytokines that mimics that observed in human NEC (40). CpG was administered via the oral route at a concentration of 1 mg/kg/day, which included […] of pretreatment prior to the start of the NEC model. Disease severity was determined on histological sections of the terminal ileum by a pediatric pathologist blinded to the study condition according to a scoring system from 0 (normal) to 3 (severe), as described by Leaphart et al. (21).
as §3
Statistical analysis was performed using SPSS 13.0 software. ANOVA was used for comparisons for experiments involving more than two experimental groups. Two-tailed student's t-test was used for comparison for experiments consisting of two experimental groups. For analysis of the severity of NEC, chi-square analysis was performed.

[4] = tested on: murine model for NEC (mNEC); assay: Pre-treatment with CpG-1 48 hours prior to attempted induction of mNEC; type: in vivo, mouse; conditions: administered 48 hours prior to attempted induction of mNEC
Procedure: FIG. 6A-C. Effects of pre-treatment of mice prior to induction of NEC. (A) Mucosal iNOS expression (as measured by RT-PCR) in BF controls, untreated mNEC animals, mice pre-treated with CpG-1 for 48 hours prior to attempted induction of NEC (“mNEC Cpg1”) and BF mice treated with CpG-1 for 48 hours. (B) Mucosal TNFα expression (as measured by RT-PCR) in BF controls, untreated mNEC animals, mice pre-treated with CpG-1 for 48 hours prior to attempted induction of NEC (“mNEC Cpg1”) and BF mice treated with CpG-1 for 48 hours. (C) Weight at the time of euthanasia of BF controls, untreated mNEC animals, mice pre-treated with CpG-1 for 48 hours prior to attempted induction of NEC (“mNEC Cpg1”) and BF mice treated with CpG-1 for 48 hours.
as §1

[5] = control tissue (healed NEC at stoma closure), FIG. 8A

Substance | disease severity ([1]; mNEC animals, oral treatment, FIG. 3A) | gross morphology [1] | expression of TNFα in the intestines (quantitative RT-PCR) [1] | disruption of the small intestine mucosa (H&E histology) ([1]; oral treatment) | body weight [1] | nuclear localization of NFκB (punctate red fluorescence) (NFκB) | LPS-induced increase in expression of IL1β (qRT-PCR) [2, 5] | LPS-induced increase in expression of TLR4 (qRT-PCR) [2, 5] | LPS-induced expression of IL-6 (qRT-PCR) ([2]; human NEC tissue, FIG. 8B) | LPS-induced expression of iNOS (qRT-PCR) ([2]; human NEC tissue, FIG. 8B) | expression of iNOS in the intestinal mucosa (qRT-PCR) ([3]; oral 1 mg/kg, formula-fed NEC mice, FIG. 7B(i), p<0.05 FF+CpG vs FF) | expression of IL-6 in the intestinal mucosa (qRT-PCR) ([3]; oral 1 mg/kg, formula-fed NEC mice, FIG. 7B(ii), p<0.05 FF+CpG vs FF) | NEC severity score ([3]; oral 1 mg/kg, score 0 (normal) to 3 (severe), FIG. 7B(iii)) | intestinal inflammation (ileum photomicrographs and gross images) ([3]; oral 1 mg/kg/day incl. 4 days pretreatment, formula-fed NEC mice, FIG. 7A) | inducible nitric oxide synthase (iNOS) level (qRT-PCR) ([1]; mNEC mice versus BF controls, oral CpG, FIG. 3B) | mucosal expression of iNOS (RT-PCR) ([4]; FIG. 6A) | mucosal expression of TNFα (RT-PCR) ([4]; FIG. 6B) | weight at the time of euthanasia ([4]; FIG. 6C)
CpG-2: CpG-ODN 5′ TCGTCGTTTTGTCGTTCCTGACGTT 3′ (SEQ ID NO:9) (listed as DNA, chemistry not given here) | trended towards but did not reach statistical significance | much more robust | brought the levels of TNFα in mNEC animals down to approach the level in BF controls | ameliorated | higher body weight | largely absent |  |  |  |  |  |  |  |  |  |  |  | 
CpG ODN 1826 [CpG-1] |  | much more robust | brought the levels of TNFα in mNEC animals down to approach the level in BF controls | ameliorated | higher body weight |  | reduced | reduced | reduced | reduced | reduced | reduced | reduced | attenuates intestinal inflammation | substantially reduced | reduced almost to baseline levels | reduced almost to baseline levels | approached controls
